Laboratory results as given in PubChem BioAssay AID248 (DTP/NCI, 2004).
Inconclusive results and toxic doses are left out. Cut-off read from the data, not from the text of the source: active = T/C of 150% or more; inactive = T/C below 125%.

Tested on: L1210 leukemia ip in BDF1 mice, survival T/C
Assay: NCI In Vivo Anticancer Drug Screen. Data for tumor model L1210 Leukemia (intraperitoneal) in B6D2F1 (BDF1) mice
Conditions: endpoint: mean survival time, higher = longer survival
In short: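 Antitumor effect is assessed in tumor-bearing animals. Survival in the compound arm is compared with a vehicle-dosed control arm and expressed as their quotient.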

[1] = dose: 100.0 mg/kg/injection, schedule: Q04DX003 (ip), vehicle: Klucel (hydroxypropylcellulose) (HPC)
[2] = dose: 200.0 mg/kg/injection, schedule: Q04DX003 (ip), vehicle: Klucel (hydroxypropylcellulose) (HPC)
[3] = dose: 400.0 mg/kg/injection, schedule: Q04DX003 (ip), vehicle: Klucel (hydroxypropylcellulose) (HPC)
[4] = dose: 25.0 mg/kg/injection, schedule: Q04DX002 (ip), vehicle: saline with Tween-80
[5] = dose: 50.0 mg/kg/injection, schedule: Q04DX002 (ip), vehicle: saline with Tween-80
[6] = dose: 100.0 mg/kg/injection, schedule: Q04DX002 (ip), vehicle: Klucel (hydroxypropylcellulose) (HPC)

Measured: T/C

O=[N+]([O-])c1cc([N+](=O)[O-])c(NN(c2ccccc2)c2ccccc2)c([N+](=O)[O-])c1
inactive: dose: 12.5 mg/kg/injection, schedule: Q01DX Z (ip), vehicle: other 106 % of control | dose: 25.0 mg/kg/injection, schedule: Q01DX Z (ip), vehicle: other 102 % of control | [1] 92 % of control | [2] 88 % of control | [3] 91 % of control

Oc1ccc2ccccc2c1CN1CCCCC1
inactive: dose: 75.0 mg/kg/injection, schedule: Q01DX009 (ip), vehicle: saline 92 % of control | dose: 100.0 mg/kg/injection, schedule: Q04DX003 (ip), vehicle: saline 90 % of control | dose: 150.0 mg/kg/injection, schedule: Q01DX009 (ip), vehicle: saline 95 % of control | dose: 200.0 mg/kg/injection, schedule: Q04DX003 (ip), vehicle: saline 101 % of control | dose: 300.0 mg/kg/injection, schedule: Q01DX009 (ip), vehicle: saline 89 % of control | dose: 400.0 mg/kg/injection, schedule: Q04DX003 (ip), vehicle: saline 106 % of control

COc1ccc(N=Cc2cccc(OC)c2O)cc1.COc1ccc(N=Cc2cccc(OC)c2O)cc1.[Co]
inactive: dose: 50.0 mg/kg/injection, schedule: Q04DX003 (ip), vehicle: saline with Tween-80 92 % of control | dose: 200.0 mg/kg/injection, schedule: Q04DX003 (ip), vehicle: saline with Tween-80 92 % of control | dose: 400.0 mg/kg/injection, schedule: Q04DX003 (ip), vehicle: saline with Tween-80 95 % of control

OCCNCCc1ccccc1
inactive: dose: 75.0 mg/kg/injection, schedule: Q01DX009 (ip), vehicle: carboxymethylcellulose (CMC) 104 % of control | dose: 150.0 mg/kg/injection, schedule: Q01DX009 (ip), vehicle: carboxymethylcellulose (CMC) 107 % of control

CN1C(=O)CC(C(=O)c2ccc(N3C(=O)C=CC3=O)cc2)(c2ccccc2)C1=O (configuration not stated)
inactive: [4] 102 % of control | [5] 98 % of control

c1ccc(-c2nc(-c3ccccc3)c(-c3ccccc3)nc2-c2ccccc2)cc1
inactive: dose: 100.0 mg/kg/injection, schedule: Q01DX001 (ip), vehicle: gum acacia 89 % of control | dose: 200.0 mg/kg/injection, schedule: Q01DX001 (ip), vehicle: gum acacia 91 % of control | dose: 400.0 mg/kg/injection, schedule: Q01DX001 (ip), vehicle: gum acacia 86 % of control

O=C(O)c1ccc(N=Cc2ccc(N(CCCl)CCCl)cc2)cc1O
inactive: dose: 100.0 mg/kg/injection, schedule: Q01DX001 (ip), vehicle: carboxymethylcellulose (CMC) 95 % of control | dose: 200.0 mg/kg/injection, schedule: Q01DX001 (ip), vehicle: carboxymethylcellulose (CMC) 101 % of control

O=c1[nH]c2cccnc2c(=O)n1O
inactive: dose: 175.0 mg/kg/injection, schedule: Q04DX003 (ip), vehicle: carboxymethylcellulose (CMC) 108 % of control | dose: 350.0 mg/kg/injection, schedule: Q04DX003 (ip), vehicle: carboxymethylcellulose (CMC) 92 % of control

S=c1c2[nH]cnc2ncn1C1CCCC1
inactive: dose: 5.0 mg/kg/injection, schedule: Q01DX001 (ip), vehicle: other 100 % of control | dose: 10.0 mg/kg/injection, schedule: Q01DX001 (ip), vehicle: other 106 % of control | dose: 15.0 mg/kg/injection, schedule: Q01DX009 (ip), vehicle: saline with Tween-80 119 % of control | dose: 20.0 mg/kg/injection, schedule: Q01DX001 (ip), vehicle: other 103 % of control | dose: 33.5 mg/kg/injection, schedule: Q01DX009 (ip), vehicle: saline with Tween-80 104 % of control

c1cc[c]([Pb]([c]2ccccc2)([c]2ccccc2)[n]2ccc3ccccc32)cc1
inactive: dose: 1.0 mg/kg/injection, schedule: Q04DX003 (ip), vehicle: saline with Tween-80 113 % of control | dose: 1.56 mg/kg/injection, schedule: Q01DX009 (ip), vehicle: saline with Tween-80 91 % of control | dose: 2.0 mg/kg/injection, schedule: Q04DX003 (ip), vehicle: saline with Tween-80 90 % of control | dose: 3.12 mg/kg/injection, schedule: Q01DX009 (ip), vehicle: saline with Tween-80 89 % of control | dose: 4.0 mg/kg/injection, schedule: Q04DX003 (ip), vehicle: saline with Tween-80 101 % of control | dose: 8.0 mg/kg/injection, schedule: Q04DX003 (ip), vehicle: saline with Tween-80 101 % of control

O=P(N(CCCl)CCCl)(N1CCCCC1)N1CCCCC1
inactive: dose: 50.0 mg/kg/injection, schedule: Q01DX Z (ip), vehicle: saline 86 % of control | dose: 100.0 mg/kg/injection, schedule: Q01DX Z (ip), vehicle: saline 88 % of control | dose: 200.0 mg/kg/injection, schedule: Q01DX Z (ip), vehicle: saline 90 % of control

Cc1ccccc1-n1c(C)cc(C(=O)O)c1C
inactive: dose: 100.0 mg/kg/injection, schedule: Q01DX009 (ip), vehicle: Klucel (hydroxypropylcellulose) (HPC) 110 % of control | [1] 102 % of control | dose: 200.0 mg/kg/injection, schedule: Q01DX009 (ip), vehicle: Klucel (hydroxypropylcellulose) (HPC) 93 % of control | [2] 106 % of control | dose: 400.0 mg/kg/injection, schedule: Q01DX009 (ip), vehicle: Klucel (hydroxypropylcellulose) (HPC) 98 % of control | [3] 88 % of control

CCCCCOC(=O)COc1ccc(Cl)cc1
inactive: [6] 98 % of control | dose: 200.0 mg/kg/injection, schedule: Q04DX002 (ip), vehicle: Klucel (hydroxypropylcellulose) (HPC) 98 % of control | dose: 400.0 mg/kg/injection, schedule: Q04DX002 (ip), vehicle: Klucel (hydroxypropylcellulose) (HPC) 103 % of control

O=c1ccn(CCCOc2ccccc2)c(=O)[nH]1
inactive: dose: 25.0 mg/kg/injection, schedule: Q04DX002 (ip), vehicle: Klucel (hydroxypropylcellulose) (HPC) 102 % of control | dose: 50.0 mg/kg/injection, schedule: Q04DX002 (ip), vehicle: Klucel (hydroxypropylcellulose) (HPC) 102 % of control | [6] 106 % of control

COc1cc2c(cc1OC)C(CC(C)C)=[N+](C)CC2
inactive: [4] 93 % of control | [5] 93 % of control | dose: 100.0 mg/kg/injection, schedule: Q04DX002 (ip), vehicle: saline with Tween-80 93 % of control

CCOC(=O)/C(O)=C/c1nc2ccccc2nc1C
inactive: [1] 105 % of control | [2] 96 % of control | [3] 99 % of control
